From ChEMBL document CHEMBL4184210, “Optimization of novel monobactams with activity against carbapenem-resistant Enterobacteriaceae - Identification of LYS228” (Bioorg Med Chem Lett, 2018)
≈ marks a conversion by molar mass, not a printed value.

What was measured:
Escherichia coli [1] = assay: Antimicrobial activity against Escherichia coli expressing beta-lactamase KPC-2 by CLSI broth microdilution method; format: functional
Escherichia coli [2] = assay: microbe, parasite or virus in culture
Description: Antimicrobial activity against Escherichia coli expressing beta-lactamase SHV-12 by CLSI broth microdilution method

Escherichia coli [3] = assay: microbe, parasite or virus in culture; remark: listed apart in the source
Description: Antimicrobial activity against Escherichia coli expressing beta-lactamase CTXM-15 by CLSI broth microdilution method

Escherichia coli [4] = assay: microbe, parasite or virus in culture; remark: listed apart in the source
Description: Antimicrobial activity against Escherichia coli expressing beta-lactamase TEM-10 by CLSI broth microdilution method

Escherichia coli [5] = assay: microbe, parasite or virus in culture; remark: listed apart in the source
Description: Antimicrobial activity against Escherichia coli expressing beta-lactamase AmpC by CLSI broth microdilution method

Escherichia coli [6] = assay: microbe, parasite or virus in culture; remark: listed apart in the source
Description: Antimicrobial activity against wild type Escherichia coli by CLSI broth microdilution method

Escherichia coli [7] = assay: microbe, parasite or virus in culture; remark: listed apart in the source
Description: Antimicrobial activity against Escherichia coli expressing beta-lactamase CMY-2 by CLSI broth microdilution method

[8] = Chemical stability in pH 7.4 potassium phosphate buffer assessed as half life for compound hydrolysis at 37 degC by UPLC and mass spectrometry; format: physicochemical
Escherichia coli [9] = assay: Antimicrobial activity against Escherichia coli expressing beta-lactamase NDM-1 by CLSI broth microdilution method; format: functional

SMILES | MIC (Escherichia coli [1]) | MIC (Escherichia coli [2]) | MIC (Escherichia coli [3]) | MIC (Escherichia coli [4]) | MIC (Escherichia coli [5]) | MIC (Escherichia coli [6]) | MIC (Escherichia coli [7]) | half-life [8] | MIC (Escherichia coli [9])
C[C@H](O/N=C(\C(=O)N[C@@H]1C(=O)N(S(=O)(=O)O)[C@@H]1Cn1cncn1)c1csc(N)n1)C(=O)O (stereo in doubt) | 1 µg/mL (≈ 2.05 µM) | 4 µg/mL (≈ 8.19 µM) | 0.125 µg/mL (≈ 0.256 µM) | 4 µg/mL (≈ 8.19 µM) | 2 µg/mL (≈ 4.09 µM) | 0.125 µg/mL (≈ 0.256 µM) | 8 µg/mL (≈ 16.4 µM) |  | 
CC(C)(O/N=C(\C(=O)N[C@@H]1C(=O)N(S(=O)(=O)O)[C@@H]1CN1C[C@H](CNC(=N)N)OC1=O)c1csc(N)n1)C(=O)O (stereo in doubt) | 16 µg/mL (≈ 27 µM) | 16 µg/mL (≈ 27 µM) | 8 µg/mL (≈ 13.5 µM) | > 64 µg/mL | 16 µg/mL (≈ 27 µM) | 8 µg/mL (≈ 13.5 µM) | 32 µg/mL (≈ 54.1 µM) | > 37 h | 
CC(C)(O/N=C(\C(=O)N[C@@H]1C(=O)N(S(=O)(=O)O)[C@@H]1CNC(=O)CN)c1csc(N)n1)C(=O)O (stereo in doubt) | 4 µg/mL (≈ 7.88 µM) | 8 µg/mL (≈ 15.8 µM) | 0.25 µg/mL (≈ 0.493 µM) | 2 µg/mL (≈ 3.94 µM) | 0.5 µg/mL (≈ 0.985 µM) | 0.25 µg/mL (≈ 0.493 µM) |  | 149 h | 0.125 µg/mL (≈ 0.246 µM)
CC(C)(O/N=C(\C(=O)N[C@@H]1C(=O)N(S(=O)(=O)O)[C@@H]1CN1C[C@@H](CN)OC1=O)c1csc(N)n1)C(=O)O (stereo in doubt) | 1 µg/mL (≈ 1.82 µM) | 0.5 µg/mL (≈ 0.91 µM) | 0.5 µg/mL (≈ 0.91 µM) | 2 µg/mL (≈ 3.64 µM) | 1 µg/mL (≈ 1.82 µM) | 0.5 µg/mL (≈ 0.91 µM) | 1 µg/mL (≈ 1.82 µM) | > 37 h | 
Nc1nc(/C(=N/OC2(C(=O)O)CCC2)C(=O)N[C@@H]2C(=O)N(S(=O)(=O)O)[C@@H]2Cn2cncn2)cs1 (stereo in doubt) | 1 µg/mL (≈ 1.94 µM) | 1 µg/mL (≈ 1.94 µM) | 0.5 µg/mL (≈ 0.972 µM) | 4 µg/mL (≈ 7.77 µM) | 2 µg/mL (≈ 3.89 µM) | 1 µg/mL (≈ 1.94 µM) | 4 µg/mL (≈ 7.77 µM) |  | 
CC(C)(O/N=C(\C(=O)N[C@@H]1C(=O)N(S(=O)(=O)O)[C@@H]1Cn1ncnc1CN)c1csc(N)n1)C(=O)O (stereo in doubt) | 4 µg/mL (≈ 7.53 µM) | 4 µg/mL (≈ 7.53 µM) | 2 µg/mL (≈ 3.76 µM) | 4 µg/mL (≈ 7.53 µM) | 8 µg/mL (≈ 15.1 µM) | 2 µg/mL (≈ 3.76 µM) | 8 µg/mL (≈ 15.1 µM) | > 37 h | 
CC(C)(O/N=C(\C(=O)N[C@@H]1C(=O)N(S(=O)(=O)O)[C@@H]1Cn1nccn1)c1csc(N)n1)C(=O)O (stereo in doubt) | 1 µg/mL (≈ 1.99 µM) | 1 µg/mL (≈ 1.99 µM) | 0.5 µg/mL (≈ 0.995 µM) | 2 µg/mL (≈ 3.98 µM) | 8 µg/mL (≈ 15.9 µM) | 0.5 µg/mL (≈ 0.995 µM) |  | 978 h | 0.5 µg/mL (≈ 0.995 µM)
CC(C)(O/N=C(\C(=O)N[C@@H]1C(=O)N(S(=O)(=O)O)[C@@H]1Cn1cc(CCN)nn1)c1csc(N)n1)C(=O)O (stereo in doubt) | 2 µg/mL (≈ 3.67 µM) | 4 µg/mL (≈ 7.33 µM) | 1 µg/mL (≈ 1.83 µM) | 2 µg/mL (≈ 3.67 µM) | 2 µg/mL (≈ 3.67 µM) | 1 µg/mL (≈ 1.83 µM) | 4 µg/mL (≈ 7.33 µM) | > 37 h | 
Cc1nnn(C[C@@H]2[C@H](NC(=O)/C(=N\OC(C)(C)C(=O)O)c3csc(N)n3)C(=O)N2S(=O)(=O)O)n1 (stereo in doubt) | 8 µg/mL (≈ 15.5 µM) | 8 µg/mL (≈ 15.5 µM) | 1 µg/mL (≈ 1.93 µM) | 8 µg/mL (≈ 15.5 µM) | 8 µg/mL (≈ 15.5 µM) | 2 µg/mL (≈ 3.86 µM) |  |  | 2 µg/mL (≈ 3.86 µM)
CC(C)(O/N=C(\C(=O)N[C@@H]1C(=O)N(S(=O)(=O)O)[C@@H]1CN1C[C@@H](CO)OC1=O)c1csc(N)n1)C(=O)O (stereo in doubt) | 32 µg/mL (≈ 58.1 µM) | 32 µg/mL (≈ 58.1 µM) | 16 µg/mL (≈ 29.1 µM) | 64 µg/mL (≈ 116 µM) | 32 µg/mL (≈ 58.1 µM) | 16 µg/mL (≈ 29.1 µM) | 16 µg/mL (≈ 29.1 µM) | > 37 h | 
C[C@@H](O/N=C(\C(=O)N[C@@H]1C(=O)N(S(=O)(=O)O)[C@@H]1Cn1cncn1)c1csc(N)n1)C(=O)O (stereo in doubt) | 1 µg/mL (≈ 2.05 µM) | 2 µg/mL (≈ 4.09 µM) | 0.5 µg/mL (≈ 1.02 µM) | 1 µg/mL (≈ 2.05 µM) | 4 µg/mL (≈ 8.19 µM) | 1 µg/mL (≈ 2.05 µM) | 16 µg/mL (≈ 32.8 µM) |  | 
CN(C[C@@H]1[C@H](NC(=O)/C(=N\OC(C)(C)C(=O)O)c2csc(N)n2)C(=O)N1S(=O)(=O)O)C(=O)CN (stereo in doubt) | 8 µg/mL (≈ 15.3 µM) | 4 µg/mL (≈ 7.67 µM) | 4 µg/mL (≈ 7.67 µM) |  | 16 µg/mL (≈ 30.7 µM) | 4 µg/mL (≈ 7.67 µM) |  | 212 h | 4 µg/mL (≈ 7.67 µM)
CC(C)(O/N=C(\C(=O)N[C@@H]1C(=O)N(S(=O)(=O)O)[C@@H]1CN1C[C@@H](CNC(=N)N)OC1=O)c1csc(N)n1)C(=O)O (stereo in doubt) | 1 µg/mL (≈ 1.69 µM) | 0.25 µg/mL (≈ 0.423 µM) | 0.125 µg/mL (≈ 0.211 µM) | 2 µg/mL (≈ 3.38 µM) | 0.25 µg/mL (≈ 0.423 µM) | 0.25 µg/mL (≈ 0.423 µM) | 0.25 µg/mL (≈ 0.423 µM) | > 37 h | 
CC(C)(O/N=C(\C(=O)N[C@@H]1C(=O)N(S(=O)(=O)O)[C@@H]1Cn1ncnc1CNC(=N)N)c1csc(N)n1)C(=O)O (stereo in doubt) | 32 µg/mL (≈ 55.8 µM) | 16 µg/mL (≈ 27.9 µM) | 16 µg/mL (≈ 27.9 µM) | 16 µg/mL (≈ 27.9 µM) | 32 µg/mL (≈ 55.8 µM) | 16 µg/mL (≈ 27.9 µM) | 32 µg/mL (≈ 55.8 µM) | > 37 h | 
Nc1nc(/C(=N/OCC(=O)O)C(=O)N[C@@H]2C(=O)N(S(=O)(=O)O)[C@@H]2Cn2cncn2)cs1 (stereo in doubt) | 0.5 µg/mL (≈ 1.05 µM) | 16 µg/mL (≈ 33.7 µM) | 0.25 µg/mL (≈ 0.527 µM) | 1 µg/mL (≈ 2.11 µM) | 16 µg/mL (≈ 33.7 µM) | 0.125 µg/mL (≈ 0.263 µM) | 8 µg/mL (≈ 16.9 µM) |  | 
